Results from patent publication US20230393140A1, “BINDING ASSAYS INVOLVING A PLURALITY OF SYNTHETIC COMPOUNDS, TARGETS, AND COUNTER TARGETS” (SRI International, priority 2020, published 2023).
Numbered stars: 1 amine (or outer) side, 2 acyl side, 3 side chain; on linkers, the order of the positions; unused ones are H or OH. Square brackets hold non-standard residues; d marks the D form. Peptide text beside a SMILES is read from it. * marks the point of attachment. 5FAM = O=C1OC2(c3ccc(O)cc3Oc3cc(O)ccc32)c2ccc(C(=O)*)cc21; NHCH2C6H4(4-CH2CONH2) = NC(=O)Cc1ccc(CN*)cc1; X1 = O=C(Cc1ccc(CN[*:1])cc1)[*:2]

Target: T1, IL-6R (Homo sapiens, UniProt P08887)
T1 construct: purchased Creative Biomart IL6R-584H
T1 sequence (P08887 20-355 limits assumed): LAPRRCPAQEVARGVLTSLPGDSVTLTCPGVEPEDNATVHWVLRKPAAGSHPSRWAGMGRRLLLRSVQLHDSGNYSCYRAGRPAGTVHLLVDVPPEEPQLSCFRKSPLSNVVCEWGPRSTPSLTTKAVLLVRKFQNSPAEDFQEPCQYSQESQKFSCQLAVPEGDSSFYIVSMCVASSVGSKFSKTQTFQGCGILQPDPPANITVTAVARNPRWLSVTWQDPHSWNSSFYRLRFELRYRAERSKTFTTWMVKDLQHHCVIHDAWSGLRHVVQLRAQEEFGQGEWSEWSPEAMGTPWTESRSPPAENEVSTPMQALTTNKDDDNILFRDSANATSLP
Experiment: MST binding affinity of resynthesized NNP hits to IL-6R
Procedure: Hit binding affinity to various targets were determined using Microscale Thermophoresis (MST). MST experiments were performed on a Monolith NT.115pico (NanoTemper Technologies GmbH, Munich, Germany). Measurements were performed at room temperature, in triplicate with incubation periods of 15, 30 and 45 minutes. […] Targets were labeled using Nanotemper Monolith 2nd Generation Protein Labeling Kits. RED-MALEIMIDE (Maleimide-647-dye) labeling kit was used for K-Ras and RED-NHS (NHS-647-dye) labeling kit was used for IL-6, IL-6R, TNFα and ASGPR. The buffer for the ASGPR contained 20 mM HEPES pH 7.4, 150 mM NaCl, 10 mM MgCl2, 2 mM CaCl2, 0.05% Pluronic F-127, and 1 mM DTT; for IL-6 contained 20 mM HEPES pH 7.4, 150 mM KCl, 10 mM MgCl2, and 0.1% Pluronic F-127; for the soluble IL-6 receptor 20 mM HEPES pH 7.4, 150 mM NaCl, 10 mM MgCl2, and 0.05% Tween-20; for K-Ras 20 mM HEPES pH 7.4, 150 mM NaCl, 10 mM MgCl2, 0.05% Tween-20 and 1 mM DTT; for TNFα 10 mM HEPES pH 7.4, 150 mM NaCl, 10 mM MgCl2, 0.05% Polysorbate-20. Triplicate data was analyzed using MO.AffinityAnalysis software (NanoTemper Technologies GmbH).

Row | SMILES | Kd (MST, NNP2 library hit, target SIL-6R, one-site binding model) [nM] | Kd (IL-6R, ester versus amide amino acid-PAM bond polymers, library NNP2) [nM]
1 | CC(C)C[C@H](NC(=O)[C@@H](CCCNC(=N)N)NC(=O)[C@@H](C)NC(=O)Cc1ccc(CNC(=O)[C@H](Cc2ccccc2)NC(=O)[C@@H](CCC(=O)O)NC(=O)[C@H]2CCCN2C(=O)Cc2ccc(CNC(=O)[C@H](Cc3ccccc3)NC(=O)[C@@H](CCCCN)NC(=O)[C@@H](C)NC(=O)Cc3ccc(CNC(=O)[C@H](CC(C)C)NC(=O)[C@@H](CCCNC(=N)N)NC(=O)[C@@H](Cc4c[nH]c5ccccc45)NC(=O)Cc4ccc(CNC(=O)[C@H](C)NC(=O)[C@@H](CCCCN)NC(=O)[C@H]5CCCN5C(=O)Cc5ccc(CNC(=O)[C@@H](NC(=O)[C@@H](CC(N)=O)NC(=O)[C@H]6CCCN6C(=O)Cc6ccc(CNC(=O)[C@H](Cc7ccccc7)NC(=O)[C@@H](Cc7c[nH]c8ccccc78)NC(=O)[C@@H](CCCNC(=N)N)NC(=O)c7ccc8c(c7)C(=O)OC87c8ccc(O)cc8Oc8cc(O)ccc87)cc6)C(C)C)cc5)cc4)cc3)cc2)cc1)C(=O)NCc1ccc(CC(=O)N[C@H](Cc2c[nH]c3ccccc23)C(=O)N[C@H](CCCCN)C(=O)N[C@@H](CC(C)C)C(=O)NCc2ccc(CC(=O)N[C@H](Cc3ccccc3)C(=O)N[C@H](CCCCN)C(=O)NCC(=O)NCc3ccc(CC(N)=O)cc3)cc2)cc1 [IL6R-87-6, Fluorescein-(D)Arg-(D)Trp-(L)Phe-PAM-(D)Pro-(D)Asn-(L)Val-PAM-(D)Pro-(D)Lys-(L)Ala-PAM-(D)Trp-(D)Arg-(L)Leu-PAM-(D)Ala-(D)Lys-(L)Phe-PAM-(D)Pro-(D)Glu-(L)Phe-PAM-(D)Ala-(D)Arg- (L)Leu-PAM-(D)Trp-(D)Lys-(L)Leu-PAM-(D)Phe-(D)Lys-Gly-PAM] (5FAM-[dR][dW]F[X1][dP][dN]V[X1][dP][dK]A[X1][dW][dR]L[X1][dA][dK]F[X1][dP][dE]F[X1][dA][dR]L[X1][dW][dK]L[X1][dF][dK]G-{NHCH2C6H4(4-CH2CONH2)}) | 3.3 | 
2 | CC(C)C[C@H](NC(=O)[C@@H](CCCNC(=N)N)NC(=O)[C@@H](C)NC(=O)Cc1ccc(CNC(=O)[C@H](Cc2ccccc2)NC(=O)[C@@H](CCCNC(=N)N)NC(=O)[C@@H](CC(N)=O)NC(=O)Cc2ccc(CNC(=O)[C@H](Cc3ccccc3)NC(=O)[C@@H](CCCCN)NC(=O)[C@@H](C)NC(=O)Cc3ccc(CNC(=O)[C@H](CC(C)C)NC(=O)[C@@H](CCC(=O)O)NC(=O)[C@@H](CCCCN)NC(=O)Cc4ccc(CNC(=O)[C@@H](NC(=O)[C@@H](CCC(=O)O)NC(=O)[C@@H](Cc5ccccc5)NC(=O)Cc5ccc(CNC(=O)[C@H](CC(C)C)NC(=O)[C@@H](CCCNC(=N)N)NC(=O)[C@@H](CC(C)C)NC(=O)Cc6ccc(CNC(=O)[C@H](Cc7ccccc7)NC(=O)[C@@H](Cc7c[nH]c8ccccc78)NC(=O)[C@@H](CCCNC(=N)N)NC(=O)c7ccc8c(c7)C(=O)OC87c8ccc(O)cc8Oc8cc(O)ccc87)cc6)cc5)C(C)C)cc4)cc3)cc2)cc1)C(=O)NCc1ccc(CC(=O)N[C@H](Cc2c[nH]c3ccccc23)C(=O)N[C@H](CCCCN)C(=O)N[C@@H](CC(C)C)C(=O)NCc2ccc(CC(=O)N[C@H](C)C(=O)N[C@@H](C(=O)N[C@@H](CC(C)C)C(=O)NCc3ccc(CC(N)=O)cc3)C(C)C)cc2)cc1 [IL6R-87-10, Fluorescein-(D)Arg-(D)Trp-(L)Phe-PAM-(D)Leu-(D)Arg-(L)Leu-PAM-(D)Phe-(D)Glu-(L)Val-PAM-(D)Lys-(D)Glu-(L)Leu-PAM-(D)Ala-(D)Lys-(L)Phe-PAM-(D)Asn-(D)Arg-(L)Phe-PAM-(D)Ala-(D)Arg- (L)Leu-PAM-(D)Trp-(D)Lys-(L)Leu-PAM-(D)Ala-(D)Val-(L)Leu-PAM] (5FAM-[dR][dW]F[X1][dL][dR]L[X1][dF][dE]V[X1][dK][dE]L[X1][dA][dK]F[X1][dN][dR]F[X1][dA][dR]L[X1][dW][dK]L[X1][dA][dV]L-{NHCH2C6H4(4-CH2CONH2)}) |  | 20
